{"source": "PubChem BioAssay AID2060349", "about": "(Molecular Pharmacology Branch, DTP, NCI, 2025)", "system": "762968-020-R-J2-PDC spheroids viability", "assay": "Anticancer human tumor 762968-020-R-J2-PDC patient-derived colon carcinoma cell line growth inhibition [TAK]", "settings": "spheroids with HUVEC and MSC; for pIC50: curve of first compound; for viability, T/C: stronger effect = lower value", "excerpt": "Combinatorial screen of targeted agents with TAK-243 and ipatasertib in multi-cell type tumor spheroids\nA high-throughput screen of multi-cell type tumor spheroids was designed to identify active combinations of targeted small molecules and TAK-243 or ipatasertib. Complex spheroids include a stromal component modeled by human endothelial cells (HUVEC) and fibroblasts modeled by human mesenchymal stem cells (MSCs). The concentration ranges selected for each drug and investigational agent were based upon clinically achievable concentrations if the clinical Cmax of the agent was known.\nCompounds. The drugs and investigational agents: TAK-243 (785004), ipatasertib (767898), everolimus (733504), selumetinib (741078), bortezomib (756655), trametinib (758246), ixazomib (758254), vemurafenib (761431), dabrafenib (764134), sapanisertib (764658), alpelisib (765974), and copanlisib (816437), were obtained from the National Cancer Institute (NCI) Developmental Therapeutics Program Chemical Repository. The FDA-approved anticancer drug set is available from the NCI Developmental Therapeutics Program. […] The stock solutions were prepared in dimethyl sulfoxide (DMSO, Sigma-Aldrich, St. Louis, MO, cat. D2650) at 800-fold the tested concentration and stored at -70 degrees C prior to their use. All drugs and investigational agents were tested over a range starting from a high concentration at or near the clinical Cmax and decreasing in half-log increments. If the clinical Cmax for an agent had not been determined, the highest concentration tested was 10 microM.\nNCI60 Cell Culture. NCI60 cell lines were obtained from the NCI Developmental Therapeutics Program Tumor Repository. For each lot of cells, the Repository performed Applied Biosystems AmpFLSTR Identifiler testing with PCR amplification to confirm consistency with the published Identifier STR profile for each cell line. Cells were kept in continuous culture for no more than 20 passages. The optimal seeding densities for each of the cell lines at each time point assessed were determined prior to performing the concentration response studies. Briefly, the NCI60 human tumor lines were grown as monolayers in RPMI 1640 medium supplemented with 10% FBS and 2 mmol/L L-glutamine.\nAn additional 2 lines were from the NCI60 cell line panel including melanomas, MALME-3M and SK-MEL-2. Pooled donor human umbilical vein endothelial cells (HUVEC, Lonza, cat. CC-2519) and human mesenchymal stem cells (hMSC, Lonza, cat. PT-2501) were purchased from Lonza (Walkersville, MD).\nPDMR cell lines were grown in complete medium (DC medium): Dulbecco's modified Eagle's medium (DMEM)/F12 supplemented with 5% fetal bovine serum (FBS), 2 mM L-glutamine, 100 U/mL penicillin and 100 µg/ml streptomycin, 0.4 µg/ml hydrocortisone, 10 ng/ml epidermal growth factor (EGF) recombinant human protein, 24 µg/mL adenine, and 0.1 mg/mL primocin. During culture from frozen stock vials, PDMR cells were cultured in the same medium containing 10 µM Y-27632 (see Table 3). The PDCs were cultured in complete DMEM/F12 media without 10 microM Y-27632 dihydrochloride for at least two passages prior to the screen. The pooled donor HUVEC and hMSC were cultured in endothelial cell growth medium 2 (PromoCell, Heidelberg, Germany, cat. C-22011) and mesenchymal stem cell growth medium 2 (PromoCell, cat. C-28009), respectively. For all experiments, HUVEC and hMSC were used at passages </=5.\nFor the pre-screen, cell seeding densities were determined from a titration spanning the range from 5,000 to 313 cells per well. The mct-spheroids including 60% malignant cells, 25% HUVEC and 15% MSC dispensed as a mixture into U-bottom Ultra-Low Attachment 384-well plates (Corning, NY)\nHigh-throughput Drug Combination Screening.\nPrior to their inoculation into 384-well plates, malignant cells, HUVEC, and hMSC were removed from T flasks using TrypLE express (Thermo Fisher Scientific, cat. 12605036) and harvested by centrifugation for 5 min at 233 x g. […]", "note": "pIC50: −log10 of the molar value."}
{"compound": "COC1CC2CCC(C)C(O)(O2)C(=O)C(=O)N2CCCCC2C(=O)OC(C(C)CC2CCC(OCCO)C(OC)C2)CC(=O)C(C)C=C(C)C(O)C(OC)C(=O)C(C)CC(C)C=CC=CC=C1C", "note": "(stereo not given) + CC(C)NCC(C(=O)N1CCN(c2ncnc3c2C(C)CC3O)CC1)c1ccc(Cl)cc1;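 also: spheroids exposed to drug for 7 days before readout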;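 as to viability, T/C: 100% = DMSO vehicle control wells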", "values": [{"measurement": "pIC50", "setting": "second compound 0.3 µM", "result": "< 7.00"}, {"measurement": "pIC50", "setting": "second compound 0.949 µM", "result": "< 7.00"}, {"measurement": "pIC50", "setting": "second compound 3 µM", "result": "< 7.00"}, {"measurement": "pIC50", "setting": "second compound 9.49 µM", "result": "< 7.00"}, {"measurement": "pIC50", "setting": "second compound 30 µM", "result": "< 7.00"}, {"measurement": "viability, T/C", "setting": "second compound 0.3 µM, first compound 0.000316 µM", "result": 102, "unit": "%"}, {"measurement": "viability, T/C", "setting": "second compound 0.3 µM, first compound 0.001 µM", "result": 106, "unit": "%"}, {"measurement": "viability, T/C", "setting": "second compound 0.3 µM, first compound 0.00316 µM", "result": 103, "unit": "%"}, {"measurement": "viability, T/C", "setting": "second compound 0.3 µM, first compound 0.01 µM", "result": 103, "unit": "%"}, {"measurement": "viability, T/C", "setting": "second compound 0.3 µM, first compound 0.0316 µM", "result": 103, "unit": "%"}, {"measurement": "viability, T/C", "setting": "second compound 0.3 µM, first compound 0.1 µM", "result": 102, "unit": "%"}, {"measurement": "viability, T/C", "setting": "second compound 0.949 µM, first compound 0.000316 µM", "result": 104, "unit": "%"}, {"measurement": "viability, T/C", "setting": "second compound 0.949 µM, first compound 0.001 µM", "result": 104, "unit": "%"}, {"measurement": "viability, T/C", "setting": "second compound 0.949 µM, first compound 0.00316 µM", "result": 111, "unit": "%"}, {"measurement": "viability, T/C", "setting": "second compound 0.949 µM, first compound 0.01 µM", "result": 105, "unit": "%"}, {"measurement": "viability, T/C", "setting": "second compound 0.949 µM, first compound 0.0316 µM", "result": 99.5, "unit": "%"}, {"measurement": "viability, T/C", "setting": "second compound 0.949 µM, first compound 0.1 µM", "result": 92.3, "unit": "%"}, {"measurement": "viability, T/C", "setting": "second compound 3 µM, first compound 0.000316 µM", "result": 107, "unit": "%"}, {"measurement": "viability, T/C", "setting": "second compound 3 µM, first compound 0.001 µM", "result": 109, "unit": "%"}, {"measurement": "viability, T/C", "setting": "second compound 3 µM, first compound 0.00316 µM", "result": 109, "unit": "%"}, {"measurement": "viability, T/C", "setting": "second compound 3 µM, first compound 0.01 µM", "result": 105, "unit": "%"}, {"measurement": "viability, T/C", "setting": "second compound 3 µM, first compound 0.0316 µM", "result": 95.1, "unit": "%"}, {"measurement": "viability, T/C", "setting": "second compound 3 µM, first compound 0.1 µM", "result": 97.5, "unit": "%"}, {"measurement": "viability, T/C", "setting": "second compound 9.49 µM, first compound 0.000316 µM", "result": 104, "unit": "%"}, {"measurement": "viability, T/C", "setting": "second compound 9.49 µM, first compound 0.001 µM", "result": 105, "unit": "%"}, {"measurement": "viability, T/C", "setting": "second compound 9.49 µM, first compound 0.00316 µM", "result": 95.5, "unit": "%"}, {"measurement": "viability, T/C", "setting": "second compound 9.49 µM, first compound 0.01 µM", "result": 101, "unit": "%"}, {"measurement": "viability, T/C", "setting": "second compound 9.49 µM, first compound 0.0316 µM", "result": 93.9, "unit": "%"}, {"measurement": "viability, T/C", "setting": "second compound 9.49 µM, first compound 0.1 µM", "result": 100, "unit": "%"}, {"measurement": "viability, T/C", "setting": "second compound 30 µM, first compound 0.000316 µM", "result": 92.2, "unit": "%"}, {"measurement": "viability, T/C", "setting": "second compound 30 µM, first compound 0.001 µM", "result": 89, "unit": "%"}, {"measurement": "viability, T/C", "setting": "second compound 30 µM, first compound 0.00316 µM", "result": 92.3, "unit": "%"}, {"measurement": "viability, T/C", "setting": "second compound 30 µM, first compound 0.01 µM", "result": 86.4, "unit": "%"}, {"measurement": "viability, T/C", "setting": "second compound 30 µM, first compound 0.0316 µM", "result": 92.2, "unit": "%"}, {"measurement": "viability, T/C", "setting": "second compound 30 µM, first compound 0.1 µM", "result": 84.5, "unit": "%"}]}
{"compound": "CC(=O)Nc1cccc(-n2c(=O)n(C3CC3)c(=O)c3c(Nc4ccc(I)cc4F)n(C)c(=O)c(C)c32)c1", "note": "+ CC(C)NCC(C(=O)N1CCN(c2ncnc3c2C(C)CC3O)CC1)c1ccc(Cl)cc1", "values": [{"measurement": "pIC50", "setting": "second compound 0.3 µM", "result": 7.69}, {"measurement": "pIC50", "setting": "second compound 0.949 µM", "result": 7.68}, {"measurement": "pIC50", "setting": "second compound 3 µM", "result": 7.64}, {"measurement": "pIC50", "setting": "second compound 9.49 µM", "result": 7.75}, {"measurement": "pIC50", "setting": "second compound 30 µM", "result": 7.79}, {"measurement": "viability, T/C", "setting": "second compound 0.3 µM, first compound 94.9 pM", "result": 98.7, "unit": "%"}, {"measurement": "viability, T/C", "setting": "second compound 0.3 µM, first compound 0.0003 µM", "result": 104, "unit": "%"}, {"measurement": "viability, T/C", "setting": "second compound 0.3 µM, first compound 0.000949 µM", "result": 91.6, "unit": "%"}, {"measurement": "viability, T/C", "setting": "second compound 0.3 µM, first compound 0.003 µM", "result": 82.2, "unit": "%"}, {"measurement": "viability, T/C", "setting": "second compound 0.3 µM, first compound 0.00949 µM", "result": 70.1, "unit": "%"}, {"measurement": "viability, T/C", "setting": "second compound 0.3 µM, first compound 0.03 µM", "result": 39.7, "unit": "%"}, {"measurement": "viability, T/C", "setting": "second compound 0.949 µM, first compound 94.9 pM", "result": 92.9, "unit": "%"}, {"measurement": "viability, T/C", "setting": "second compound 0.949 µM, first compound 0.0003 µM", "result": 98.1, "unit": "%"}, {"measurement": "viability, T/C", "setting": "second compound 0.949 µM, first compound 0.000949 µM", "result": 91.8, "unit": "%"}, {"measurement": "viability, T/C", "setting": "second compound 0.949 µM, first compound 0.003 µM", "result": 96, "unit": "%"}, {"measurement": "viability, T/C", "setting": "second compound 0.949 µM, first compound 0.00949 µM", "result": 74.5, "unit": "%"}, {"measurement": "viability, T/C", "setting": "second compound 0.949 µM, first compound 0.03 µM", "result": 38.5, "unit": "%"}, {"measurement": "viability, T/C", "setting": "second compound 3 µM, first compound 94.9 pM", "result": 101, "unit": "%"}, {"measurement": "viability, T/C", "setting": "second compound 3 µM, first compound 0.0003 µM", "result": 103, "unit": "%"}, {"measurement": "viability, T/C", "setting": "second compound 3 µM, first compound 0.000949 µM", "result": 97.4, "unit": "%"}, {"measurement": "viability, T/C", "setting": "second compound 3 µM, first compound 0.003 µM", "result": 90.2, "unit": "%"}, {"measurement": "viability, T/C", "setting": "second compound 3 µM, first compound 0.00949 µM", "result": 80.2, "unit": "%"}, {"measurement": "viability, T/C", "setting": "second compound 3 µM, first compound 0.03 µM", "result": 41.1, "unit": "%"}, {"measurement": "viability, T/C", "setting": "second compound 9.49 µM, first compound 94.9 pM", "result": 96.1, "unit": "%"}, {"measurement": "viability, T/C", "setting": "second compound 9.49 µM, first compound 0.0003 µM", "result": 99.1, "unit": "%"}, {"measurement": "viability, T/C", "setting": "second compound 9.49 µM, first compound 0.000949 µM", "result": 95.6, "unit": "%"}, {"measurement": "viability, T/C", "setting": "second compound 9.49 µM, first compound 0.003 µM", "result": 80.6, "unit": "%"}, {"measurement": "viability, T/C", "setting": "second compound 9.49 µM, first compound 0.00949 µM", "result": 67.3, "unit": "%"}, {"measurement": "viability, T/C", "setting": "second compound 9.49 µM, first compound 0.03 µM", "result": 36.3, "unit": "%"}, {"measurement": "viability, T/C", "setting": "second compound 30 µM, first compound 94.9 pM", "result": 90.3, "unit": "%"}, {"measurement": "viability, T/C", "setting": "second compound 30 µM, first compound 0.0003 µM", "result": 87.7, "unit": "%"}, {"measurement": "viability, T/C", "setting": "second compound 30 µM, first compound 0.000949 µM", "result": 80.3, "unit": "%"}, {"measurement": "viability, T/C", "setting": "second compound 30 µM, first compound 0.003 µM", "result": 71.4, "unit": "%"}, {"measurement": "viability, T/C", "setting": "second compound 30 µM, first compound 0.00949 µM", "result": 60.9, "unit": "%"}, {"measurement": "viability, T/C", "setting": "second compound 30 µM, first compound 0.03 µM", "result": 38.8, "unit": "%"}]}
